Where “and” joins values, the source holds several entries; their conditions need not be identical. Equal entries are not always repeated.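 Each compound was tested at five concentrations against cells in 96-well plates for 48 hours. Here, GI50 denotes the concentration required for 50% inhibition of growth. At the TGI there is no net growth.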
How the values were obtained:
Assay in all cases: NCI anticancer screen, dose series, 48 h
[1] = test system: U251 CNS
[2] = test system: LOX IMVI melanoma
[3] = test system: ACHN renal
[4] = test system: IGROV1 ovarian
[5] = test system: OVCAR-5 ovarian
[6] = test system: CCRF-CEM leukemia
[7] = test system: HT29 colon
[8] = test system: RPMI-8226 leukemia
[9] = test system: MCF7 breast
[10] = test system: PC-3 prostate

| Compound | TGI [1] | TGI [2] | TGI [3] | TGI [4] | TGI [5] | TGI [6] | TGI [7] | TGI [8] | TGI [9] | GI50 [10] | TGI [10] | GI50 [1] | GI50 [2] | GI50 [3] | GI50 [4] | GI50 [9] | GI50 [8] | GI50 [5] | GI50 [7] | GI50 [6] |
| --- | --- | --- | --- | --- | --- | --- | --- | --- | --- | --- | --- | --- | --- | --- | --- | --- | --- | --- | --- | --- |
| O=c1c2cccnc2ncn1CCCN1CCOCC1 | > 100 µM | > 100 µM | > 100 µM | > 100 µM | > 100 µM | > 100 µM | > 100 µM | – | – | – | – | – | – | – | – | – | – | – | – | – |
| Cc1cccc(N2C(=O)C(=O)C(c3nc4ccccc4s3)C(=O)C2=O)c1C | > 100 µM | > 100 µM | > 100 µM | > 100 µM | > 100 µM | > 100 µM | > 100 µM | > 100 µM | – | – | – | – | – | – | – | – | – | – | – | – |
| OC(C(=Nc1ccccc1)c1ccccc1)c1ccccc1 (stereo not drawn) | 15.6 µM | 38.2 µM | 31.5 µM | 51.7 µM | 82.3 µM | 27.9 µM | 25.6 µM | 71.1 µM | 45.4 µM | – | – | – | – | – | – | – | – | – | – | – |
| O=C(Nc1ccccc1F)c1ccc(NC2=C(Cl)C(=O)N(Cc3ccccc3)C2=O)cc1 | 26 µM | 5.9 µM | 28.4 µM | 2.94 µM | 30.2 µM | – | 13.5 µM | 3.92 µM | 5.06 µM | 3.39 µM | 12.8 µM | 13.3 µM | 2.35 µM | 15.1 µM | 1.16 µM | 2.02 µM | 1.83 µM | 16.6 µM | 4.18 µM | – |
| Cc1[nH]nc(C(=O)Nc2n[nH]c3ccccc23)c1[N+](=O)[O-] | > 100 µM | > 100 µM | > 100 µM | > 100 µM | > 100 µM | – | > 100 µM | > 100 µM | > 100 µM | > 100 µM | > 100 µM | > 100 µM | > 100 µM | > 100 µM | > 100 µM | 53.3 µM | > 71.5 µM | > 100 µM | > 100 µM | – |
| N#Cc1ccc2oc3ccc(C#N)cc3c(=O)c2c1 | 31.7 µM | – | > 100 µM | > 100 µM | 34.5 µM | 74 µM | 40.1 µM | 62.4 µM | 94.8 µM | – | 55 µM | – | – | – | – | – | – | – | – | – |
| COc1cc(/C=C/C(=O)c2cc(OC)c(OC)c(OC)c2)cc(OC)c1OC | 16.6 µM | 10.9 µM | 46.8 µM | – | 20.1 µM | > 100 µM | 15 µM | 19.4 µM | 15.3 µM | 5.32 µM | 27.8 µM | 3.21 µM | 2.74 µM | 4.73 µM | – | 3.05 µM | 2.56 µM | 5.68 µM | 3.64 µM | 2.25 µM |
| CN(C)CCNC(=O)c1cccc2c1nc(-c1ccccn1)c1ccccc12 | 34.5 µM | – | 35.3 µM | 66.6 µM | 38.1 µM | 51.7 µM | 39.9 µM | – | – | – | – | – | – | – | – | – | – | – | – | – |
| CC(C)c1ccc(O)c(=O)cc1 | > 80.9 µM | 40.7 µM and 72.8 µM | > 68.5 µM | > 100 µM | 64.8 µM and > 100 µM | > 41 µM and 4.89 µM | > 100 µM | > 80.5 µM | – | – | – | 6.53 µM | 3.54 µM | 4.46 µM | 7.48 µM | 5.08 µM | 6.35 µM | 6.84 µM | 2.81 µM | 1.67 µM |
| NC(=S)N/N=C(\C(=O)Nc1ccc(Cl)c(Cl)c1)C1=NN(c2ccccc2)C(c2cccc([N+](=O)[O-])c2)CC1=O (stereo not drawn) | 17 µM | 30.8 µM | > 100 µM | 72.6 µM | > 100 µM | 62 µM | 34.8 µM | 14.4 µM | – | – | – | – | – | – | – | – | – | – | – | – |
| O=C1CCC2CCOc3ccc(O)c1c32 (stereo not drawn) | > 100 µM | – | > 100 µM | > 100 µM | > 100 µM | > 100 µM | > 100 µM | > 100 µM | – | – | – | – | – | – | – | – | – | – | – | – |
| CC1=C(c2cc(C(=O)Nc3cccc(C(F)(F)F)c3)nc(NC#N)n2)Sc2ccccc2N1 | > 100 µM | > 100 µM | > 100 µM | > 100 µM | > 100 µM | > 100 µM | > 100 µM | > 100 µM | – | – | – | – | – | – | – | – | – | – | – | – |
| Cc1ccc([Se][Se]c2ccc(C)cc2)cc1 | 17.5 µM | 18.9 µM | > 100 µM | > 100 µM | – | 19.7 µM | > 100 µM | 31.8 µM | – | – | – | – | – | – | – | – | – | – | – | – |
| Oc1ccc(SCc2ccc(NCc3ccccc3)cc2)cc1 | > 100 µM | 73.9 µM | > 100 µM | > 100 µM | 69.3 µM | 64.8 µM | 48.3 µM | – | > 100 µM | – | 71.9 µM | – | – | – | – | – | – | – | – | – |
| CCc1cccc(C(C)CC)c1NC(=O)CC1C(=O)Nc2ccccc2S1=O (stereo not drawn) | 48.5 µM | 73.7 µM | > 100 µM | 78.6 µM | > 100 µM | 90.3 µM | 55.1 µM | > 100 µM | – | – | – | – | – | – | – | – | – | – | – | – |
| CC12CCC(O)CC1CCC1C2CCC2(C)C(C3=CC(=O)OC3)CCC12 (stereo not drawn) | 10.1 µM | > 100 µM | > 91.3 µM | > 71 µM | > 100 µM | – | > 100 µM | > 100 µM | > 100 µM | > 67.4 µM | > 100 µM | 2.62 µM | 0.3 µM | 26.4 µM | 20.5 µM | > 100 µM | 1.27 µM | > 100 µM | > 100 µM | – |
| O=C1CC(c2c[nH]c3ccccc23)C(=O)N1c1ccccc1 (stereo not drawn) | > 100 µM | – | > 100 µM | > 100 µM | > 100 µM | > 100 µM | > 100 µM | > 100 µM | – | – | – | – | – | – | – | – | – | – | – | – |
| CC1=N/C(=C\c2ccc([N+](=O)[O-])cc2)C(=O)O1 | > 100 µM | – | > 100 µM | > 100 µM | > 100 µM | – | > 100 µM | > 100 µM | – | – | – | – | – | – | – | – | – | – | – | – |
| CCCCC#Cc1cccc(=O)o1 | – | – | – | > 100 µM | > 100 µM | > 100 µM | > 100 µM | 49.9 µM | > 100 µM | 25.7 µM | > 100 µM | – | – | – | 79.5 µM | 8.9 µM | 2.03 µM | > 100 µM | 7.03 µM | 20.3 µM |
| COc1ccc2c(c1)C(=O)c1c-2n(CCCCl)c(=O)c2cc(N(C)C)ccc12 | 84.2 µM | > 100 µM | > 100 µM | > 100 µM | > 100 µM | – | > 100 µM | – | > 100 µM | 34.5 µM | > 100 µM | 23.1 µM | 99.1 µM | 36 µM | 33 µM | 28.6 µM | – | > 100 µM | > 100 µM | – |
